Measurements reported in patent publication US20040186117A1, “Marker” (priority 2001, published 2004).
Values joined by “and” are separate entries in the source; they are usually repeats but may differ in a detail not shown here. Equal values may be shown once. “Also recorded” adds a separate entry of the source.

What was measured:
[1] = test system: RB phosphorylation (Ser780, Ser608) in HT29 cells; experiment: Western blotting for RB phosphorylation in HT29 cells; assay type: cell-based, human; conditions: for effect on RB phosphorylation: HT29, equitoxic (3×96 h IC50) concentration, 24 h; for time of loss of RB phosphorylation after exposure: HT29, 50 μM
Source text: (§1) This antibody was selected as a representative marker for all tested phosphorylation sites of RB (see Section 2). […] A general loss of RB phosphorylation is indicated by a switch from a broad band to a thin, more rapidly migrating band for total RB (see Section 2, FIG. 9).
(§2) Samples were harvested for western blotting or for cell cycle analysis by FACS. […] Since validating the original phospho-specific antibodies, a Ser608 antibody became available from Dr Sibylle Mittnacht. This site is potentially phosphorylated by CDK4/cyclin D1 and CDK2/cyclin A (Zarkowska and Mittnacht, J. Biol Chem (1997) 9:272 12738-46).

[2] = test system: ERK1/2 phosphorylation in HT29 cells; experiment: Western blotting for phospho-ERK1/2 in HT29 cells; assay type: cell-based, human; conditions: for effect on ERK phosphorylation: HT29, equitoxic (3×96 h IC50) concentration, 24 h
[3] = test system: c-FOS protein in HT29 cells; conditions: for effect on c-FOS protein level: HT29, 50 μM
cyclin D1 in HT29 cells = experiment: Western blotting for cyclin D1 expression in HT29 cells; conditions: HT29, 50 μM
[4] = test system: RB phosphorylation (Ser780) in KM12 cells; conditions: KM12, 50 μM
Source text: as §1, §2

[5] = test system: ERK1/2 phosphorylation in KM12 cells; experiment: Western blotting for phospho-ERK1/2 in KM12 cells; assay type: cell-based, human
[6] = test system: ELK-1 phosphorylation (Ser383) in HT29 cells
[7] = HT29, 10 μM with 50 μM R-roscovitine

SMILES | effect on RB phosphorylation [1] | effect on ERK phosphorylation [2] | time of loss of RB phosphorylation after exposure [1] | effect on c-FOS protein level [3] | effect on cyclin D1 expression (cyclin D1 in HT29 cells) | further results
O=C1Cc2c([nH]c3ccc([N+](=O)[O-])cc23)-c2ccccc2N1 [alsterpaullone] | failed to inhibit RB phosphorylation | fails to induce; also recorded: no effect upon ERK | – | – | – | –
CC(C)[C@H](CO)Nc1nc(Nc2cccc(Cl)c2)c2ncn(C(C)C)c2n1 [purvalanol A] | inhibited RB phosphorylation | fails to induce; also recorded: failed to induce ERK phosphorylation | – | – | – | –
CC[C@H](CO)Nc1nc(NCc2ccccc2)c2ncn(C(C)C)c2n1 (racemic) [roscovitine] | – | – | 24 h | increased levels | decreased levels | –
CC[C@H](CO)Nc1nc(NCc2ccccc2)c2ncn(C(C)C)c2n1 [R-roscovitine, 2-(R)-(1-ethyl-2-hydroxyethylamino)-6-benzylamino-9-isopropylpurine] | inhibited RB phosphorylation | induced ERK phosphorylation | 12 to 24 h and 24 h | induction of c-FOS protein | inhibited the expression | time of loss of RB phosphorylation after exposure [4]: 12 to 24 h; kinetics of induction of ERK phosphorylation compared with HT29 ([5]; KM12, 50 μM time course): slower kinetics; effect on phosphorylated ERK1/2 ([5]; KM12, increasing concentrations, 24 h exposure): increase of phosphorylated ERK1/2; effect on ELK-1 phosphorylation ([6]; HT29, 50 μM, after 4 h): strong induction; phospho-ERK1/2 level at 24 h ([2]; HT29, 50 μM time course): remaining above basal levels; time of onset of induction of ERK phosphorylation ([2]; HT29, 50 μM time course): 1 h; time at which induction of ERK phosphorylation was observed ([2]; HT29, 50 μM, experiment with U0126 (FIG. 5B)): 4 to 24 h; effect on phosphorylated ERK1/2 ([2]; HT29, increasing concentrations, 24 h exposure): increase of phosphorylated ERK1/2; time at which an increase of c-FOS protein was detected ([3]; HT29, 50 μM time course): 12 to 24 h
N#CC(=C(/N)Sc1ccccc1N)/C(C#N)=C(\N)Sc1ccccc1N [U0126, reference compound] | – | – | – | – | – | effect on R-roscovitine-induced ELK-1 phosphorylation [6, 7]: blocked the phosphorylation; effect on R-roscovitine-induced ERK phosphorylation [2, 7]: prevented the induction; effect on R-roscovitine-induced increase in c-FOS [3, 7]: blocked
CN1CC[C@H](c2c(O)cc(O)c3c(=O)cc(-c4ccccc4Cl)oc23)[C@H](O)C1 [flavopiridol] | failed to inhibit RB phosphorylation | fails to induce; also recorded: no effect upon ERK | – | – | – | –
